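Interpolation was linear, between the two tested concentrations surrounding the appropriate level; five concentrations were tested over 48 hours in 96-well plates. TGI is the concentration that stops growth completely.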
Key:
Assay in all cases: NCI anticancer screen, dose series, 48 h
[1] = tested on: HCT-15 colon
[2] = tested on: SF-268 CNS
[3] = tested on: SK-MEL-2 melanoma
[4] = tested on: ACHN renal
[5] = tested on: NCI-H522 lung
[6] = tested on: HOP-62 NSCLC
[7] = tested on: MCF7 breast
[8] = tested on: CCRF-CEM leukemia
[9] = tested on: U251 CNS
[10] = tested on: SN12C renal
[11] = tested on: NCI-H460 lung
[12] = tested on: HS 578T breast
[13] = tested on: TK-10 renal
[14] = tested on: OVCAR-3 ovarian
[15] = tested on: MDA-N
[16] = tested on: UO-31 renal
[17] = tested on: LOX IMVI melanoma
[18] = tested on: RXF 393 renal
[19] = tested on: NCI/ADR-RES ovarian
[20] = tested on: A549 NSCLC
[21] = tested on: RPMI-8226 leukemia
[22] = tested on: SW-620 colon
[23] = tested on: OVCAR-8 ovarian
[24] = tested on: PC-3 prostate
[25] = tested on: MOLT-4 leukemia
[26] = tested on: SK-OV-3 ovarian
[27] = tested on: SK-MEL-5 melanoma
[28] = tested on: KM12 colon
[29] = tested on: COLO 205 colon
[30] = tested on: MDA-MB-435
[31] = tested on: UACC-62 melanoma
[32] = tested on: NCI-H226 lung
[33] = tested on: SNB-19 CNS
[34] = tested on: HT29 colon
[35] = tested on: OVCAR-4 ovarian
[36] = tested on: CAKI-1 renal
[37] = tested on: SK-MEL-28 melanoma
[38] = tested on: M14 melanoma
[39] = tested on: K-562 leukemia
[40] = tested on: DU-145 prostate
[41] = tested on: MDA-MB-231 breast
[42] = tested on: MALME-3M melanoma
[43] = tested on: 786-0 renal
[44] = tested on: T-47D breast
[45] = tested on: HL-60(TB) leukemia
[46] = tested on: NCI-H23 lung
[47] = tested on: OVCAR-5 ovarian
[48] = tested on: UACC-257 melanoma
[49] = tested on: EKVX NSCLC
[50] = tested on: HCT-116 colon
[51] = tested on: HCC-2998 colon
[52] = tested on: IGROV1 ovarian
[53] = tested on: SF-295 CNS
[54] = tested on: BT-549 breast
[55] = tested on: SR leukemia
[56] = tested on: SNB-75 CNS
[57] = tested on: SF-539 CNS
[58] = tested on: HOP-92 NSCLC
[59] = tested on: A498 renal

Measured: TGI

CN(C)CCc1ccnc2nc(-c3ccc4ccccc4c3)cn12
44.3 µM: [28]
47.7 µM: [22]
65 µM: [17]
38.9 µM: [34]
52.8 µM: [12]
77.5 µM: [2]
72 µM: [14]
92.7 µM: [23]
34.1 µM: [11]
40.7 µM: [13]
> 100 µM: [1] | [3] | [4] | [6] | [7] | [8] | [9] | [15] | [16] | [18] | [20] | [21] | [24] | [25] | [26] | [27] | [29] | [30] | [31] | [32] | [33] | [35] | [36] | [37] | [38] | [39] | [40] | [41] | [42] | [44] | [45] | [47] | [48] | [49] | [50] | [53] | [55]
46.2 µM: [46]
85.3 µM: [19]
69 µM: [54]
81.8 µM: [52]
24.8 µM: [5]
75.9 µM: [10]
37.2 µM: [51]
63.2 µM: [43]

Cc1cc(=O)oc2c(C)c3oc(CBr)c(Br)c3cc12
64.6 µM: [21]
97.7 µM: [23]
67.9 µM: [50]
> 100 µM: [1] | [3] | [4] | [6] | [7] | [8] | [9] | [12] | [13] | [14] | [15] | [24] | [25] | [26] | [29] | [30] | [32] | [33] | [34] | [37] | [40] | [41] | [45] | [46] | [48] | [49] | [57] | [54]
29.7 µM: [43]
30.2 µM: [5]
52.1 µM: [22]
41.6 µM: [18]
36.5 µM: [16]
72.6 µM: [44]
49 µM: [11]
66.8 µM: [39]
28.8 µM: [17]
31.6 µM: [36]
78.6 µM: [2]
70 µM: [56]
42.5 µM: [53]
88.1 µM: [35]
83.8 µM: [28]
37.2 µM: [20]
33.8 µM: [27]
37.6 µM: [31]
50.3 µM: [38]
98.5 µM: [55]
58.7 µM: [10]
80 µM: [47]
95.7 µM: [19]
70.7 µM: [51]
36.1 µM: [52]

CCOc1ccc2ccc3cccnc3c2n1
58.4 µM: [14]
62.5 µM: [21]
> 100 µM: [1] | [2] | [58] | [3] | [4] | [5] | [8] | [9] | [10] | [11] | [12] | [13] | [15] | [16] | [17] | [18] | [19] | [20] | [22] | [23] | [24] | [27] | [28] | [29] | [30] | [32] | [33] | [34] | [35] | [36] | [37] | [38] | [39] | [40] | [41] | [42] | [43] | [44] | [45] | [46] | [47] | [49] | [56] | [50] | [51] | [52] | [57] | [53] | [54]
45.8 µM: [7]
95.2 µM: [26]
76 µM: [59]
85.1 µM: [48]
75.9 µM: [31]
73 µM: [55]
61.4 µM: [6]

CCNc1nc2c(ncn2C2CC(O)C(COP(=O)(O)O)O2)c(=O)[nH]1 (stereo not drawn)
> 100 µM: [1] | [2] | [58] | [3] | [4] | [5] | [6] | [7] | [9] | [10] | [11] | [12] | [13] | [14] | [15] | [17] | [19] | [20] | [21] | [22] | [23] | [24] | [26] | [27] | [28] | [29] | [30] | [31] | [32] | [33] | [34] | [35] | [36] | [37] | [38] | [40] | [41] | [42] | [43] | [44] | [45] | [46] | [47] | [48] | [49] | [56] | [50] | [51] | [59] | [52] | [57] | [53] | [54] | [55]
